Read-outs that look alike come from different tables or passages of the source.
Assays:
rat CB2 [1] = target: T1, rat CB2 (Rattus norvegicus, UniProt Q9QZN9); assay: rat CB2 radioligand binding assay ([3H]CP 55,940 competition); design: expressed in transfected cells; host or cells: HEK293; conditions: rat CB2 (Ki, nM), HEK293 membranes, 0.5 nM [3H]CP 55,940
T1 sequence (Q9QZN9 1-360): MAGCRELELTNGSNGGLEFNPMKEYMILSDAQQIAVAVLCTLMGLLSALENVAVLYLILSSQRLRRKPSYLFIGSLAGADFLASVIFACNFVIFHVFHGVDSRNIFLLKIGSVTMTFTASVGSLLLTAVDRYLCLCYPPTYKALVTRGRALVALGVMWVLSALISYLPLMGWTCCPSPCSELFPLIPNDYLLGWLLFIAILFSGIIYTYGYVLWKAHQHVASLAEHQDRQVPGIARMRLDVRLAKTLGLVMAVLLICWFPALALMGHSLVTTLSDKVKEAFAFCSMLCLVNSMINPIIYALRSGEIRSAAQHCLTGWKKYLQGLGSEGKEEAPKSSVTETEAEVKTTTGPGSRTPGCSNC
In short: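 Competition binding against 0.5 nM [3H]CP 55,940 (pH 7.4 buffer with 0.5 mg/mL BSA, 30 °C, 45 min), with displacers spanning 0.01 nM–10 μM at five concentrations. Receptor source: stably transfected HEK293 membranes, 20 μg/well. Nonspecific binding defined by 10 μM unlabeled CP 55,940; readout by filtration and counting.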

human CB2 receptors = target: T2, human CB2 receptors (Homo sapiens, UniProt P34972); assay: human CB2 radioligand binding assay ([3H]CP 55,940 competition); conditions: human CB2 (Ki, nM), HEK293 membranes, 0.5 nM [3H]CP 55,940
T2 construct: expressed in transfected cells; host or cells: HEK293
T2 sequence (P34972 whole entry): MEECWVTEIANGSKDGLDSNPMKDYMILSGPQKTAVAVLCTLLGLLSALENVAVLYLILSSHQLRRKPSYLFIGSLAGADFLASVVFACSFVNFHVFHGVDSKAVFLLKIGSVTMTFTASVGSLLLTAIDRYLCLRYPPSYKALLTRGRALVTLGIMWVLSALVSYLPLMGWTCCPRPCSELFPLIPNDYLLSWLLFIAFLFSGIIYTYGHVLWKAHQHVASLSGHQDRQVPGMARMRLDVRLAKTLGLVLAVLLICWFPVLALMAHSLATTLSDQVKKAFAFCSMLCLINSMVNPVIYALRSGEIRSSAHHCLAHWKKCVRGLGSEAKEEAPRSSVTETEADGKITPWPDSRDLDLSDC
In short: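 Displacement of 0.5 nM [3H]CP 55,940 over 0.01 nM-10 μM test compound, measured on human CB2 membranes from stably transfected HEK293 cells. Incubation 90 min at 30 °C in Tris/EDTA/MgCl2/BSA, pH 7.4, then filter-bound radioactivity counted; 10 μM unlabeled CP 55,940 defined nonspecific binding.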

Rat CB1 = target: T3, Rat CB1 (Rattus norvegicus, UniProt P20272); assay: rat CB1 cyclase functional assay (HitHunter cAMP); assay type: cell-based; conditions: HEK cells, forskolin 37 μM
T3 construct: expressed in transfected cells; host or cells: HEK
T3 sequence (P20272 whole entry): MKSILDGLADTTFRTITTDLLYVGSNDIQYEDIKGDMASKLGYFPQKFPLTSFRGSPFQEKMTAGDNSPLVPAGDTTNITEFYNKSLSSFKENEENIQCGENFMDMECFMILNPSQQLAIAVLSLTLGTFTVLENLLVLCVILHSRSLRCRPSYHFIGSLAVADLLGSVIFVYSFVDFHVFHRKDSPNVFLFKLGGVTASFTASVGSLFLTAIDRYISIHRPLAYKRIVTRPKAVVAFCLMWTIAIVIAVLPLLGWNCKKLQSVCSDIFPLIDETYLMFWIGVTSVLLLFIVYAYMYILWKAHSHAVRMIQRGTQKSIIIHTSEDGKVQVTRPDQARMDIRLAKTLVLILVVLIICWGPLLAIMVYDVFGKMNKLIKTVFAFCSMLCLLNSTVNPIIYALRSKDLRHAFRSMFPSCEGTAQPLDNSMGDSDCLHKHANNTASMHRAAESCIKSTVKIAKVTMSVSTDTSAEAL
Description: (§1) The cyclase functional assays were performed using the HitHunter™ cAMP assay kit from DiscoveRx (Fremont, Calif.) according to vendor's protocol. Briefly, HEK cells expressing CB2 or CB1 receptors (rat or human) were detached using cell dissociation buffer (Invitrogen, Carlsbad, Calif.), dispersed and placed in suspension at 10,000 cells per well in 96 well plates prior to the assay. Cell suspensions were incubated at 37° C. for 20 min with variable concentrations of test ligands and or 10 μM CP 55,940-positive control in the presence of a fixed concentration of forskolin (18 μM for rat CB2 and 37 μM for rat CB1) in Dulbescco's phosphate-buffered saline (Invitrogen, Carlsbad, Calif.) supplemented with bovine serum albumin (0.01% final concentration). The reactions were terminated by the addition of lysis buffer and the luminescence was detected following the procedure according to the manufacturer's instructions. EC50 values were calculated using sigmoidal dose-response curve fitting from Prism (GraphPad).

rat CB2 [2] = target: T1, rat CB2; assay: rat CB2 cyclase functional assay (HitHunter cAMP); assay type: cell-based; design: expressed in transfected cells; host or cells: HEK; conditions: HEK cells, forskolin 18 μM
Description: as §1

Row | SMILES | Ki (rat CB2 [1]) | Ki (human CB2 receptors) | EC50 (Rat CB1; Rat CB1 cyclase (EC50, nM)) | EC50 (rat CB2 [2]; rat CB2 cyclase (EC50, nM)) | EC50 (Rat CB1; read-out: Rat CB1 cyclase (EC50)) | EC50 (rat CB2 [2]; read-out: rat CB2 cyclase (EC50))
1 | Cn1c(C(C)(C)C)c/c(=N\C(=O)c2cc(C(F)(F)F)ccc2NC[C@H]2CCCO2)n1C[C@H]1CCCO1 [Example 23, N-{(3E)-5-tert-butyl-1-methyl-2-[(2R)-tetrahydrofuran-2-ylmethyl]-1,2-dihydro-3H-pyrazol-3-ylidene}-2-{[(2R)-tetrahydrofuran-2-ylmethyl]amino}-5-(trifluoromethyl)benzamide] | 2.8 nM | 4.7 nM | 3420 nM | 0.37 nM |  | 
2 | CCS(=O)(=O)NCCOc1ccc(C(F)(F)F)cc1C(=O)/N=c1\cc(C(C)(C)C)n(C)n1C[C@H]1CCCO1 [Example 50] | 8.5 nM | 21 nM | 1180 nM | 0.12 nM |  | 
3 | CN1CC[C@H]1COc1ccc(C(F)(F)F)cc1C(=O)/N=c1\oc(C(C)(C)C)cn1C[C@H]1CCCO1 [Example 74, N-[(2Z)-5-tert-butyl-3-[(2R)-tetrahydrofuran-2-ylmethyl]-1,3-oxazol-2(3 H)-ylidene]-2-{[(2S)-1-methylazetidin-2-yl]methoxy}-5-(trifluoromethyl)benzamide] | 96 nM | 188 nM | 3350 nM | 0.42 nM |  | 
4 | Cn1c(C(C)(C)C)c/c(=N\C(=O)c2cc(C(F)(F)F)ccc2OCCC2=CCCC2)n1C[C@H]1CCCO1 [Example 53, N-{(3E)-5-tert-butyl-1-methyl-2-[(2R)-tetrahydrofuran-2-ylmethyl]-1,2-dihydro-3H-pyrazol-3-ylidene}-2-(2-cyclopent-1-en-1-ylethoxy)-5-(trifluoromethyl)benzamide] | 2.8 nM | 1.5 nM | 1970 nM | 2.7 nM |  | 
5 | Cn1c(C(C)(C)C)c/c(=N\C(=O)c2cc(C(F)(F)F)ccc2OC[C@@H]2CCCO2)n1Cc1ccc(F)cc1 [Example 30, N-[(3E)-5-tert-butyl-2-(4-fluorobenzyl)-1-methyl-1,2-dihydro-3H-pyrazol-3-ylidene]-2-[(2S)-tetrahydrofuran-2-ylmethoxy]-5-(trifluoromethyl)benzamide] | 23 nM | 28 nM | > 27000 nM | 2.5 nM |  | 
6 | Cn1c(C(C)(C)C)c/c(=N\C(=O)c2cc(C(F)(F)F)ccc2OC[C@@H]2CCCN2)n1C[C@H]1CCCO1 [Example 62, N-{(3E)-5-tert-butyl-1-methyl-2-[(2R)-tetrahydrofuran-2-ylmethyl]-1,2-dihydro-3 H-pyrazol-3-ylidene}-2-[(2S)-pyrrolidin-2-ylmethoxy]-5-(trifluoromethyl)benzamide] | 21 nM | 82 nM | > 27000 nM | 0.28 nM |  | 
7 | Cn1c(C(C)(C)C)c/c(=N\C(=O)c2cc(C(F)(F)F)ccc2OCCNC(=O)OC(C)(C)C)n1C[C@H]1CCCO1 [Example 41, tert-butyl 2-[2-[({(3E)-5-tert-butyl-1-methyl-2-[(2R)-tetrahydrofuran-2-ylmethyl]-1,2-dihydro-3H-pyrazol-3-ylidene}amino)carbonyl]-4-(trifluoromethyl)phenoxy]ethylcarbamate] | 21 nM | 96 nM |  |  | > 27000 nM | 1000 nM
8 | CN1CCC[C@H]1COc1ccc(C(F)(F)F)cc1C(=O)/N=c1\oc(C(C)(C)C)cn1CC1CCC1 [Example 75] | 44 nM | 42 nM | 1360 nM | 0.19 nM |  | 
9 | Cn1c(C(C)(C)C)c/c(=N\C(=O)c2cc(C(F)(F)F)ccc2OC[C@@H]2CCCCN2)n1C[C@H]1CCCO1 [Example 88, N-{(3E)-5-tert-butyl-1-methyl-2-[(2R)-tetrahydrofuran-2-ylmethyl]-1,2-dihydro-3 H-pyrazol-3-ylidene}-2-[(2S)-piperidin-2-ylmethoxy]-5-(trifluoromethyl)benzamide] | 3.5 nM | 14 nM | 702 nM | 0.45 nM |  | 
10 | CC(=O)NCCOc1ccc(C(F)(F)F)cc1C(=O)/N=c1\cc(C(C)(C)C)n(C)n1C[C@H]1CCCO1 [Example 78, 2-[2-(acetylamino)ethoxy]-N-{(3E)-5-tert-butyl-1-methyl-2-[(2R)-tetrahydrofuran-2-ylmethyl]-1,2-dihydro-3H-pyrazol-3-ylidene}-5-(trifluoromethyl)benzamide] | 18 nM | 15 nM | 8880 nM | 1.9 nM |  | 
11 | Cn1c(C(C)(C)C)c/c(=N\C(=O)c2cc(C(F)(F)F)ccc2OCC2CCS(=O)(=O)C2)n1C[C@H]1CCCO1 (stereo partly drawn) [Example 6, N-{(3E)-5-tert-butyl-1-methyl-2-[(2R)-tetrahydrofuran-2-ylmethyl]-1,2-dihydro-3H-pyrazol-3-ylidene}-2-[(1,1-dioxidotetrahydrothien-3-yl)methoxy]-5-(trifluoromethyl)benzamide] | 78 nM | 203 nM | 11200 nM | 7.5 nM |  | 
12 | CN1CCC[C@H]1COc1ccc(C(F)(F)F)cc1C(=O)/N=c1\oc(C(C)(C)C)cn1C[C@H]1CCCO1 [Example 32, N-[(2Z)-5-tert-butyl-3-[(2R)-tetrahydrofuran-2-ylmethyl]-1,3-oxazol-2(3H)-ylidene]-2-{[(2S)-1-methylpyrrolidin-2-yl]methoxy}-5-(trifluoromethyl)benzamide] | 75 nM | 88 nM | 3870 nM | 0.6 nM |  | 
13 | CCCCn1nc(C(C)(C)C)s/c1=N\C(=O)c1cc(C(F)(F)F)ccc1OC[C@@H]1CCCN1C [Example 29, N-[(2Z)-3-butyl-5-tert-butyl-1,3,4-thiadiazol-2(3H)-ylidene]-2-{[(2S)-1-methylpyrrolidin-2-yl]methoxy}-5-(trifluoromethyl)benzamide] | 11 nM | 14 nM | 1680 nM | 3.7 nM |  | 
14 | CCOCCOCCOc1ccc(C(F)(F)F)cc1C(=O)/N=c1\cc(C(C)(C)C)n(C)n1C[C@H]1CCCO1 [Example 47, N-{(3E)-5-tert-butyl-1-methyl-2-[(2R)-tetrahydrofuran-2-ylmethyl]-1,2-dihydro-3H-pyrazol-3-ylidene}-2-[2-(2-ethoxyethoxy)ethoxy]-5-(trifluoromethyl)benzamide] | 89 nM | 70 nM | > 27000 nM | 5.6 nM |  | 
15 | Cn1c(C(C)(C)C)c/c(=N\C(=O)c2cc(C(F)(F)F)ccc2OC[C@@H]2CCCO2)n1C[C@H]1CCCO1 [Example 8, N-{(3E)-5-tert-butyl-1-methyl-2-[(2R)-tetrahydrofuran-2-ylmethyl]-1,2-dihydro-3H-pyrazol-3-ylidene}-2-[(2S)-tetrahydrofuran-2-ylmethoxy]-5-(trifluoromethyl)benzamide] | 4.3 nM | 13 nM | 6340 nM | 0.59 nM |  | 
16 | Cn1c(C(C)(C)C)c/c(=N\C(=O)c2cc(C(F)(F)F)ccc2OCC(O)CO)n1C[C@H]1CCCO1 (stereo partly drawn) [Example 42] | 11 nM | 20 nM | 6100 nM | 0.34 nM |  | 
17 | Cn1c(C(C)(C)C)c/c(=N\C(=O)c2cc(C(F)(F)F)ccc2OCCNS(C)(=O)=O)n1C[C@H]1CCCO1 [Example 45, N-{(3E)-5-tert-butyl-1-methyl-2-[(2R)-tetrahydrofuran-2-ylmethyl]-1,2-dihydro-3H-pyrazol-3-ylidene}-2-{2-[(methylsulfonyl)amino]ethoxy}-5-(trifluoromethyl)benzamide] | 7.8 nM | 19 nM | 4940 nM | 0.47 nM |  | 
18 | CN1CCC[C@H]1COc1ccc(C(F)(F)F)cc1C(=O)/N=c1\cc(C(C)(C)C)on1C[C@H]1CCCO1 [Example 39, N-[(3E)-5-tert-butyl-2-[(2R)-tetrahydrofuran-2-ylmethyl]isoxazol-3(2H)-ylidene]-2-{[(2S)-1-methylpyrrolidin-2-yl]methoxy}-5-(trifluoromethyl)benzamide] | 46 nM | 62 nM | 2620 nM | 0.63 nM |  | 

— patent US8188135B2, “Compounds as cannabinoid receptor ligands” (priority 2008, dated 2012)
